Data set [1] has as its system SK-MEL-3 cells. Nature of the data set: Cell viability (MTT assay), SK-MEL-3 melanoma cells. It is filed as cell-based, human. The note with it: for IC50: Homo sapiens, read-out: IC50 ± SD for Cell Viability, SK-MEL-3. The source says: (§1) Cytotoxicity of the plant extracts, berberine, chelerythrine, chelidonine, protopine, and sanguinarine were examined against a panel of three melanoma cell lines (A375, G-361, SK-MEL-3) characterized by different degrees of genetic complexity. Human skin fibroblasts (CRL-1474) were used in order to evaluate the effect of Saguinaria canadensis extracts against normal (i.e., non-cancerous) cells. The investigated cell lines were obtained from American Type Culture Collection (ATCC; Manassas, VA, USA). A375 and CRL-1474 cells were cultured in Dulbecco’s Modified Eagle’s Medium (DMEM) (Sigma Aldrich, St. Louis, MO, USA), supplemented with 10% heat inactivated fetal bovine serum (FBS), penicillin (100 U/mL), and streptomycin (100 µg/mL). Human melanoma SK-MEL-3 and G-361 cells were maintained in McCoy’s 5A Medium (Sigma Aldrich, St. Louis, MO, USA) supplemented with 15% (for SK-MEL-3) or 10% (for G-361) FBS, penicillin (100 U/mL), and streptomycin (100 µg/mL). The cells were maintained at 37 °C in a 5% CO2 atmosphere. The dried plant extracts and standards ([…]) were dissolved in DMSO, in order to obtain stock solutions at concentrations of 50 mg/mL. At the day of the experiment, the suspension of cells (1 × 10^5 cells/mL) in the respective medium was applied to a 96-wellplate at 100 µL per well. After 24 h of incubation, the medium was removed from the wells and replaced by increasing concentrations of plant extracts or standards in medium containing 2% FBS. The control cells were only cultured with a medium containing 2% FBS. Cytotoxicity of DMSO was also checked at concentrations present in respective dilutions of stock solutions. After 24 h of incubation, 15 µL MTT working solution (5 mg/mL in PBS) was added to each well. The plate was incubated for 3 h. Subsequently, 100 µL of 10% SDS solution was added to each well. Cells were incubated overnight at 37 °C to dissolve the precipitated formazan crystals. The concentration of the dissolved formazan was evaluated by measuring the absorbance at λ = 570 nm, using a microplate reader (Epoch, BioTek Instruments, Inc., Winooski, VT, USA). Two independent experiments were performed in triplicates. The results of the MTT assay were expressed as mean ± SD. […] IC50 values of the investigated extracts and alkaloid standards were calculated using the IC50 calculator (www.IC50.tk (accessed on 22 January 2021)).
(§2) To determine the selectivity index (SI), IC50 values for human normal fibroblasts was obtained in the same conditions as that used for cancer cell lines. Selectivity index of each compound was determined by calculating the ratio of IC50 values obtained for human normal fibroblasts and cancer cell lines.

In data set [2] the test system is G-361 cells. Nature of the data set: Cell viability (MTT assay), G-361 melanoma cells. It is filed as cell-based, human. The note with it: for IC50: Homo sapiens, read-out: IC50 ± SD for Cell Viability, G-361.
Description: as §1, §2
In general terms: Formazan colour is commonly taken as a measure of viable cells.

For data set [3] the following is noted: source not given; cited from earlier work.
Data set [4] has as its system A375 cells. Nature of the data set: Cell viability (MTT assay), A375 melanoma cells. The format is cell-based, human. The note with it: for IC50: Homo sapiens, read-out: IC50 ± SD for Cell Viability, A375.
Description: as §1, §2

Data set [5] deals with SK-MEL-3 cells. The data set is described as follows: Cell proliferation, BrdU incorporation assay. The following applies: 24 h incubation, 0.25–100 µg/mL. It is filed as cell-based, human. How it is done: The antiproliferative effect of S. canadensis extracts was measured by means of the BrdU assay, which indicates the rate of incorporation of 5′-bromo-2′-deoxy-uridine (BrdU) during DNA biosynthesis. In brief, SK-MEL-3 cells were plated in 96-well plates (NUNC, Roskilde, Denmark) at the density of 5 × 10^4 cells/mL. The next day, cells were exposed to increased concentrations (0.25–100 µg/mL) of S. canadensis extracts or cisplatin or a fresh culture medium. Cell proliferation was examined after 24 h incubation, according to the manufacturer’s protocol (Cell Proliferation ELISA BrdU, Roche Diagnostics GmbH, Penzberg, Germany). IC50 values of the investigated extracts and cisplatin were calculated using IC50 calculator [www.IC50.tk (accessed on 11 March 2021)].
Background: Incorporation of labelled thymidine or its analogues reports DNA synthesis.

Data set [6] relates to melanoma cell lines (A375, G-361, SK-MEL-3). The data set is described as follows: Cell viability (MTT assay), all three melanoma cell lines taken together. It is filed as cell-based, human. The source says: Cytotoxicity of the plant extracts, berberine, chelerythrine, chelidonine, protopine, and sanguinarine were examined against a panel of three melanoma cell lines (A375, G-361, SK-MEL-3) characterized by different degrees of genetic complexity. Human skin fibroblasts (CRL-1474) were used in order to evaluate the effect of Saguinaria canadensis extracts against normal (i.e., non-cancerous) cells. The investigated cell lines were obtained from American Type Culture Collection (ATCC; Manassas, VA, USA). A375 and CRL-1474 cells were cultured in Dulbecco’s Modified Eagle’s Medium (DMEM) (Sigma Aldrich, St. Louis, MO, USA), supplemented with 10% heat inactivated fetal bovine serum (FBS), penicillin (100 U/mL), and streptomycin (100 µg/mL). Human melanoma SK-MEL-3 and G-361 cells were maintained in McCoy’s 5A Medium (Sigma Aldrich, St. Louis, MO, USA) supplemented with 15% (for SK-MEL-3) or 10% (for G-361) FBS, penicillin (100 U/mL), and streptomycin (100 µg/mL). […] The concentration of the dissolved formazan was evaluated by measuring the absorbance at λ = 570 nm, using a microplate reader (Epoch, BioTek Instruments, Inc., Winooski, VT, USA). […] The results of the MTT assay were expressed as mean ± SD. […] IC50 values of the investigated extracts and alkaloid standards were calculated using the IC50 calculator (www.IC50.tk (accessed on 22 January 2021)).

Where [7] appears, read: SK-MEL3, MTT, 24 h exposure, medium with 2% FBS.
[8] abbreviates: G-361, MTT, 24 h exposure, medium with 2% FBS.
[9] abbreviates: A-375, MTT, 24 h exposure, medium with 2% FBS.
The mark [10] stands for this setting: MTT, 24 h exposure, medium with 2% FBS.

These results are taken from paper PMC8003779, “Determination of Cytotoxic Activity of Sanguinaria canadensis Extracts against Human Melanoma Cells and Comparison of Their Cytotoxicity with Cytotoxicity of Some Anticancer Drugs” (Molecules, 2021).

Values after ≈ are worked out from the molar mass of the structure shown. Like-named read-outs stand apart in the source and are kept apart here.

Broadly, the IC50 is the concentration at which inhibition is half-maximal. In general, Log P refers to the decadic logarithm of the partition coefficient of the neutral form, usually between octanol and water. What is called pKa is the pH at which an ionisable group is half protonated.

On to `COc1ccc2c(c[n+](C)c3c4cc5c(cc4ccc23)OCO5)c1OC` [Chelerythrine], for which the IC50 was 0.14 ± 0.004 µg/mL in data set [1] (setting [7]), 0.46 ± 0.07 µg/mL in data set [2] (setting [8]) and 0.19 ± 0.04 µg/mL in data set [4] (setting [9]). Moreover, in data set [3], the lipophilicity (Log P) is reported as −0.88. Besides, in data set [3], the pKa is −4.4.

`COc1cc([C@@H]2c3cc4c(cc3[C@@H](O[C@@H]3O[C@@H]5CO[C@@H](C)O[C@H]5[C@H](O)[C@H]3O)[C@H]3COC(=O)[C@H]23)OCO4)cc(OC)c1O` [Etoposide]: the IC50 is > 200 µg/mL in data set [1] (setting [7]), 52.3 ± 3.86 µg/mL (≈ 88.9 µM) in data set [2] (setting [8]) and 92.3 ± 4.58 µg/mL (≈ 157 µM) in data set [4] (setting [9]).

On to `COc1ccc2cc3[n+](cc2c1OC)CCc1cc2c(cc1-3)OCO2` [Berberine], for which the IC50 in data set [1] (setting [7]) was found to be 41 ± 5.36 µg/mL; in data set [2] (setting [8]), 21 ± 3.25 µg/mL; in data set [4] (setting [9]) it was 51.6 ± 4.84 µg/mL. Further, the lipophilicity (Log P) in data set [3] was −1.3. Further, the pKa in data set [3] was −4.4.

Take `C[n+]1cc2c3c(ccc2c2ccc4cc5c(cc4c21)OCO5)OCO3` [Sanguinarine]: the half-inhibitory concentration (IC50) in data set [1] (SK-MEL3, 24 h) turned out to be 0.54 ± 0.16 µg/mL; in data set [2] (G-361, 24 h) it was 0.17 ± 0.02 µg/mL; in data set [4] (A-375, 24 h), 0.11 ± 0.003 µg/mL. The lipophilicity (Log P) in data set [3] is −0.94. Besides, in data set [3], the pKa was −4.5.

As to `N.N.[Cl][Pt][Cl]` [Cisplatin], in data set [1] (setting [10]), the “IC50 ± SD for Cell Viability, SK-MEL-3” value amounted to 14.42 ± 1.61 µg/mL. In addition, the “IC50 ± SD for Cell Viability, G-361” value in data set [2] (setting [10]) is 11.53 ± 1.46 µg/mL. Further, the “IC50 ± SD for Cell Proliferation Measured by BrdU Incorporation in SK-MEL-3 Cells” value in data set [5] was found to be 24.84 ± 3.60 µg/mL. In addition, the “IC50 ± SD for Cell Viability, A375” value in data set [4] (setting [10]) was determined as 10.62 ± 1.04 µg/mL.

On to `CN1Cc2c(ccc3c2OCO3)[C@@H]2[C@H]1c1cc3c(cc1C[C@@H]2O)OCO3` [Chelidonine], for which the concentration for half-maximal inhibition (IC50) was > 50 µg/mL in data set [1] (SK-MEL3, 24 h); > 50 µg/mL in data set [6] (Homo sapiens, 24 h, read-out: IC50, cell viability, across all tested melanoma cell lines, A375, G-361, SK-MEL-3); > 50 µg/mL in data set [2] (G-361, 24 h); > 50 µg/mL in data set [4] (A-375, 24 h). The “Log P” value in data set [3] is reported as 2.05. Besides, in data set [3], the pKa is reported as 5.73.

`NC(=O)NO` [Hydroxyurea]: in data set [1] (setting [10]), the “IC50 ± SD for Cell Viability, SK-MEL-3” value is on record as >200 µg/mL. Also, in data set [2] (setting [10]), the “IC50 ± SD for Cell Viability, G-361” value is recorded as >200 µg/mL. Besides, the “IC50 ± SD for Cell Viability, A375” value in data set [4] (setting [10]) is reported as >200 µg/mL.

Take Protopine: in data set [1] (setting [10]), the “IC50 ± SD for Cell Viability, SK-MEL-3” value is >50 µg/mL. The “IC50, cell viability, across all tested melanoma cell lines” value in data set [6] (A375, G-361, SK-MEL-3, 24 h) is recorded as “more than 50 µg/mL”. In addition, in data set [2] (setting [10]), the “IC50 ± SD for Cell Viability, G-361” value is reported as >50 µg/mL. Also, in data set [3], the lipophilicity (Log P) is 2.59 and the pKa was 4.95. Moreover, the “IC50 ± SD for Cell Viability, A375” value in data set [4] (setting [10]) was >50 µg/mL.
